Measurements: US4052455A, “Styrylamidines” (Mead Johnson & Company, priority 1975, dated 1977)

Experiments:
[1] = test system: phenylquinone writhing syndrome; assay: Phenylquinone writhing test (analgesic activity); assay type: in vivo; settings: mice
Description: In this test, groups of 10-20 mice are injected subcutaneously or orally with different doses of the test compound. At predetermined time intervals, the mice receive 2.5 mg./kg. phenylquinone intraperitoneally. The total number of writhing episodes is counted for each mouse for 10 min. and the average percent decrease in writhing recorded for each dose.
The novel styrylsulfonylamidines of Formula V in addition to being useful as precursors to the styrylamidine products of Formula I have analgesic utility as measured in the foregoing phenylquinone writhing test. A preferred class of styrylsulfonylamidines of Formula V having particularly significant analgesic activity are those wherein R1 and R2 are each hydrogen, nitro or halogen and A is phenyl or lower alkyl of from 1 to 8 carbon atoms inclusive. Analgesic activity at the time interval indicated following administration of compounds representative of this class are given in Table I below.

CNS = CNS effects after oral or intraperitoneal administration to the mouse; assay type: in vivo
Description: 5,6-Dihydro-4-methyl-5-(4-nitrophenyl)-3-phenyl-4H-1,2,4-thiadiazine 1,1-dioxide was not effective in preventing the phenylquinone writhing syndrome in mice at an oral dose of 100 mg./kg. body weight or subcutaneous dose of 6 mg./kg. body weight.

mouse electroshock = assay: Mouse electroshock test of Swinyard (anticonvulsant); assay type: in vivo
Text: Aside from antithrombogenic and analgesic effects, compounds of Formula I wherein R1 and R2 substituents are halogen (particularly chlorine), R3 is hydrogen or methyl and A is selected from the group consisting of lower alkyl of from 1 to 8 carbon atoms inclusive or cycloalkyl of from 3 to 6 carbon atoms inclusive, are useful as anticonvulsant, hypotensive and antihypertensive agents. […] For example, N-(2,6-dichlorostyryl)acetamidine in the mouse electroshock test of E. A. Swinyard, J. Amer. Pharm.

blood pressure [2] = assay: Blood pressure and heart rate in anesthetized normotensive dog; assay type: in vivo
Description: (§1) For instance, at 1.0 mg./kg. body weight, this compound provides a 33% reduction in blood pressure while at 10.0 mg./kg. body weight, a 64% reduction in blood pressure is obtained. In the same test procedure, the prior art cinnamylamidine, N-(4-chlorocinnamyl)acetamidine, provided a 12% increase in blood pressure with a 6% decrease in heart rate at a dose of 1.0 mg./kg. body weight. At a dose of 10.0 mg./kg. body weight, the prior art cinnamylamidine provides an increase of 26% in blood pressure.

blood pressure [3] = assay: Blood pressure in spontaneous hypertensive rat; assay type: in vivo
Description: as §1

urine output = assay: Lipschitz diuretic test; assay type: in vivo
Text: N-(2,6-dichlorostyryl)acetamidine is orally effective as a diuretic agent according to the W. L. Lipschitz, et al., J. Pharmacol. Expt.

[4] = as reported in U.S. Pat. No. 3,413,345; cited from earlier work

Structure (SMILES): CN1C(c2ccccc2)=NS(=O)(=O)CC1c1ccc([N+](=O)[O-])cc1 (centres unmarked) [5,6-dihydro-4-methyl-5-(4-nitrophenyl)-3-phenyl-4H-1,2,4-thiadiazine 1,1-dioxide]
- Prevention of the phenylquinone writhing syndrome ([1]; oral dose 100 mg./kg. body weight): not effective
- Prevention of the phenylquinone writhing syndrome ([1]; subcutaneous dose 6 mg./kg. body weight): not effective
- CNS effect (CNS): non-specific CNS depression

Structure (SMILES): CC(=N)NCC=Cc1ccc(Cl)cc1 [N-(4-chlorocinnamyl)acetamidine, reference compound]
- Activity in mouse electroshock test (mouse electroshock; 250 mg./kg. body weight): completely inactive
- Decrease in heart rate (blood pressure [2]; 1.0 mg./kg.): 6%
- Increase in blood pressure (blood pressure [2]; 1.0 mg./kg.): 12%
- Increase in blood pressure (blood pressure [2]; 10.0 mg./kg.): 26%
- Antihypertensive effect (blood pressure [3]; 50 mg./kg.): devoid of antihypertensive effects
- Change in blood pressure (blood pressure [3]; 50 mg./kg.): slight increase in blood pressure
- Diuretic activity (urine output; oral dose 30 mg./kg. body weight): essentially inactive
- Hypotensive effect [4]: hypotensive effects which are quick in onset and of considerable duration

Structure (SMILES): CC(=N)N/C=C/c1c(Cl)cccc1Cl [N-(2,6-dichlorostyryl)acetamidine]
- ED50 (mouse electroshock; oral): 44 mg/kg
- Reduction in blood pressure (blood pressure [2]; intravenous 1.0 mg./kg.): 33%
- Reduction in blood pressure (blood pressure [2]; intravenous 10.0 mg./kg.): 64%
- Reduction in blood pressure (blood pressure [2]; intravenous 0.01 to 10 mg./kg.): dose related reduction in blood pressure
- Reduction of blood pressure (blood pressure [3]; oral 5 to 50.0 mg./kg.): substantial reduction of blood pressure
- Urine output (urine output; oral, 12.5 mg./kg. body weight): doubled the urine output
